This note sets out measurements from US9938335B2, “Glucagon and GLP-1 co-agonist compounds” (Eli Lilly and Company, priority 2015, dated 2018).

Data set [1] can be described thus: Viscosity (Rheosense mVroc Viscometer). In kind it is physicochemical. The settings on record: approximately 10 mg/mL peptide in 10 mM Tris + 3 mg/mL m-cresol at pH 8.0; 25° C.; shear rate 1934 s^−1. How it is done:
Viscosity of compounds of the present invention is measured in a Rheosense mVroc Viscometer with the following settings:
(a) Syringe size: 500 μL syringe
(b) Flow Rate: 100 μL/min flow rate
(c) Average Temperature: 25° C.
(d) Shear Rate: 1934 s^−1
Dry powder (compound) is weighed out, dissolved in water as a cloudy precipitate, and titrated to approximately pH 8.0 with 1N NaOH. The solution is sonicated and swirled by hand until peptide is in solution. Samples are sterile filtered (0.22 μm PVDF filters). Samples are then analyzed by UV-Vis to assess stock solution concentrations. Solutions are diluted to final concentration using 3× m-cresol in 10 mM Tris pH 8.0 buffer to final concentrations of approximately 10 mg/mL peptide by weight in 10 mM Tris+3 mg/mL m-cresol at pH 8.0. Samples were filtered through 0.22 μm filters immediately prior to viscosity analysis. 25 μL of sample are removed to verify concentration by RP-HPLC before and after analysis.
Water and buffer control samples are measured before and after each sample is analyzed. The instrument is washed with buffer (3×) in between analysis of each sample. The samples are loaded into individual syringes and analyzed. The first measurement is not included in the final calculation to allow for equilibration with the system. Samples are then analyzed in triplicate (n=3).
The viscosity of Compounds 1-4 was measured essentially as described in this assay.

The target in a further data set is T1, Human Gcg-R (Homo sapiens, UniProt P47871).
T1 construct: expressed in transfected cells; host or cells: HEK-293 clonal cell line over-expressing the receptor
T1 sequence (P47871 26-477): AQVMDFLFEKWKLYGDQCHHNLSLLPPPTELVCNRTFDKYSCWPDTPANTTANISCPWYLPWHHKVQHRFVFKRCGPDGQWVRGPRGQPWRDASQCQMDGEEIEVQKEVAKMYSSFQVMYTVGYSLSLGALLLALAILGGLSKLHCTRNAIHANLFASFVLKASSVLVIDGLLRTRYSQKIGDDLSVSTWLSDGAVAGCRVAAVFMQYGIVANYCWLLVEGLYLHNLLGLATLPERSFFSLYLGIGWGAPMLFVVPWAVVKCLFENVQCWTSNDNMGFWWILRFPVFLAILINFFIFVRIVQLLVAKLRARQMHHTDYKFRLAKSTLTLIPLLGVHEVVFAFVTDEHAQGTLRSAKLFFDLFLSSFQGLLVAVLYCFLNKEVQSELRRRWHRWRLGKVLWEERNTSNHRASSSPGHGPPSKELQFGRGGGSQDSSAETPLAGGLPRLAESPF
The data set is described as follows: Functional hGcg-R assay (cAMP HTRF, HEK-293 clonal cell line). It is filed as cell-based. The settings on record: cAMP, 60 minute incubation, 0.25% FBS, 0.05% BSA; geometric mean; read-out: Human Gcg-R EC50, nM ± SEM, (n).

The subject of data set [2] is DIO mice (C57BL/6). The data set can be described thus: Glycemic control in DIO mice. It is filed as in vivo, mouse. The conditions noted are these: for Blood glucose (mg/dL) post-injection, Mean: male DIO mice, 25 nmol/kg sc once. How it is done: Five to six months old male DIO mice (C57BL/6) from Taconic Biosciences are used in this study. Animals are individually housed in a temperature-controlled (24° C.) facility with a 12 hour light/dark cycle (lights on 6:00), and free access to food and water. After two weeks acclimation to the facility, the mice are randomized to treatment groups (n=7/group) based on their body weight and blood glucose. Mice are injected subcutaneously once with vehicle or compounds (25 nmol/kg). Blood glucose is monitored 2 and 8 hours post-injection and then once a day at 08:00 for 4 days. OGTTs are performed at 44 and 78 hours post the peptide injection. Statistics are analyzed using ANOVA with Dunnett's comparison by JMP 6. Significance is denoted at p≤0.05 vs vehicle.

Data set [3] concerns DIO mice (C57BL/6). The data set can be described thus: Chronic treatment in DIO mice (body weight, fat, food intake). It is filed as in vivo, mouse. The gist of the method: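 C57BL/6 DIO mice aged 5–6 months, individually housed and randomized (N=7/group) on body weight and NMR fat mass, received SC injections on Days 1, 4, 7, 10 and 13. Body weight and food intake were measured before each injection, with fat mass re-measured by NMR at study end. Percent body-weight change was tested by ANOVA/Dunnett vs vehicle (p≤0.05).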

In data set [4] the test system is DIO mice (C57BL/6). The data set can be described thus: Acute treatment in DIO mice (PCSK9, FGF-21, cholesterol). The conditions noted are these: 30 nmol/kg sc, 16 hours post dose. It is filed as in vivo, mouse. How it is done:
In order to investigate metabolic pathways involved with the treatment of compounds of the present invention independent of weight loss, compounds are tested in DIO mice (C57BL/6) acutely. The mice used are three to four months old on a high fat diet for at least 4 weeks. Animals are individually housed in a temperature-controlled (24° C.) facility with a 12 hour light/dark cycle (lights on 6:00), and free access to food and water. Vehicle or testing compounds were administered to mice by subcutaneous injection at 16:00 the day before the study day. Animals were sacrificed 16 hours later to collect blood via cardia puncture. Statistics are analyzed using ANOVA with Dunnett's comparison for JMP-6. Significance is denoted at p≤0.05 vs vehicle.
Food intake was decreased to a similar level in all treatment groups, which may indicate that changes in cholesterol, PCSK9 and FGF-21 are food-intake independent.

Data set [5] has as its target T2, hGLP-1-R (Homo sapiens, UniProt P43220). The data set can be described thus: Functional hGLP-1-R assay (cAMP HTRF, HEK-293 clonal cell line). In kind it is cell-based. Details: expressed in transfected cells; host or cells: HEK-293 clonal cell line over-expressing the receptor. On the technique in general: TR-FRET usually uses a lanthanide donor and a delayed reading to cut background.

The target in data set [6] is T2, hGLP-1-R. The data set is described as follows: hGLP-1R Binding Assay (SPA radioligand competition, 293HEK membranes). Set-up: expressed in transfected cells; host or cells: 293HEK, stably transfected with plasmid phD, Hygromycin-selected; crude plasma membranes. The settings on record: read-out: Ki, nM ± SEM at the hGLP-1-R. Background: Loss of bound radioactivity is the signal in a displacement assay; it reports binding, not function.

Where [7] appears, read: 15 nmol/kg sc every three days for 15 days.
Setting [8] is: 30 nmol/kg sc every three days for 15 days.

Marks after values point to notes of the source that are not given here.

T2 sequence (P43220 24-463): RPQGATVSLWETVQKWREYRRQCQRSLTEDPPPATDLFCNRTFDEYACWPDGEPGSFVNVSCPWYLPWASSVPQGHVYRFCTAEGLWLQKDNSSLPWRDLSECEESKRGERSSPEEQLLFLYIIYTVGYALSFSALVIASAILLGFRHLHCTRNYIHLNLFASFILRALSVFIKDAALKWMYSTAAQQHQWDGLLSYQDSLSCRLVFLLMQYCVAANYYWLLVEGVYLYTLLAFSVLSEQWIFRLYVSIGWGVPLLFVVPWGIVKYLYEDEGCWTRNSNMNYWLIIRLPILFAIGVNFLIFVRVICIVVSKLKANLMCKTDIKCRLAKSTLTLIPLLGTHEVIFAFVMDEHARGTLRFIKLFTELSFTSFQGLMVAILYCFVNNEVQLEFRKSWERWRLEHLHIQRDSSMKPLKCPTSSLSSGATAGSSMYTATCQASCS

For `CC(C)C[C@H](NC(=O)[C@H](CC(C)C)NC(=O)[C@H](Cc1c[nH]c2ccccc12)NC(=O)[C@H](CCC(=O)O)NC(=O)[C@@H](NC(=O)[C@H](Cc1ccccc1)NC(=O)[C@H](CCC(=O)O)NC(=O)[C@H](CCCCNC(=O)COCCOCCNC(=O)COCCOCCNC(=O)CC[C@H](NC(=O)CCCCCCCCCCCCCCCCCCC(=O)O)C(=O)O)NC(=O)[C@H](C)NC(=O)[C@H](CCCCN)NC(=O)[C@H](CCCCN)NC(=O)[C@H](CCC(=O)O)NC(=O)[C@H](CC(=O)O)NC(=O)[C@H](CC(C)C)NC(=O)[C@H](Cc1ccc(O)cc1)NC(=O)[C@H](CCCCN)NC(=O)[C@H](CO)NC(=O)[C@H](Cc1ccc(O)cc1)NC(=O)[C@H](CC(=O)O)NC(=O)[C@H](CO)NC(=O)[C@@H](NC(=O)[C@H](Cc1ccccc1)NC(=O)[C@@H](NC(=O)CNC(=O)[C@H](CCC(N)=O)NC(=O)C(C)(C)NC(=O)[C@@H](N)Cc1c[nH]cn1)[C@@H](C)O)[C@@H](C)O)C(C)C)C(=O)N[C@@H](CCC(=O)O)C(=O)NCC(=O)NCC(=O)N1CCC[C@H]1C(=O)N[C@@H](CO)C(=O)N[C@@H](CO)C(=O)NCC(N)=O` [Compound 2], in data set [1], the “500 μL syringe Viscosity” value is 1.04 cP or mPa-s. The EC50 (commonly the concentration at which the effect is half-maximal) at Human Gcg-R amounted to 26.5 ± 2.2 nM; at hGLP-1-R [5] (cAMP, 60 minute incubation, 0.25% FBS, 0.05% BSA, geometric mean, read-out: Human GLP-1-R EC50, nM ± SEM (n)) it was 83.1 ± 16.8 nM. For the same compound, in the data set with DIO mice (C57BL/6) [2] (OGTT 44 hours post-injection, 25 nmol/kg sc), the “44 hours Glucose AUC (% of Vehicle)” value is reported as 39* % of Vehicle. Also, in the data set with DIO mice (C57BL/6) [2] (OGTT 78 hours post-injection, 25 nmol/kg sc), the “78 hours Glucose AUC (% of Vehicle)” value is on record as 66* % of Vehicle. In addition, in the data set with DIO mice (C57BL/6) [2] (OGTTs at 44 and 78 hours post injection, 25 nmol/kg), the “glucose excursions post an oral glucose challenge” value is listed as “lower glucose excursions post an oral glucose challenge at both time points”. For the same compound, the “Blood glucose (mg/dL) post-injection, Mean” value in the data set with DIO mice (C57BL/6) [2] (2 hours post-injection) was 112.7 mg/dL; in the data set on DIO mice (C57BL/6) [2] (8 hours post-injection) it was 87.4 mg/dL; in the data set on DIO mice (C57BL/6) [2] (24 hours post-injection), 101.1 mg/dL; in the data set with DIO mice (C57BL/6) [2] (48 hours post-injection), 101.3 mg/dL; in the data set with DIO mice (C57BL/6) [2] (72 hours post-injection), 97.6 mg/dL; with DIO mice (C57BL/6) [2] (96 hours post-injection), 115.0 mg/dL. Moreover, the “Body Fat (% change vs. vehicle from Day 1)” value is recorded as −43* % in the data set with DIO mice (C57BL/6) [3] (setting [7]) and −70* % in the data set on DIO mice (C57BL/6) [3] (setting [8]). Further, the entries for the “Body Weight (% change vs. vehicle from Day 1)” value in the data set with DIO mice (C57BL/6) [3] (setting [7]) and in the data set on DIO mice (C57BL/6) [3] (setting [8]) were −19* % and −33* %, respectively. Also, in the data set with DIO mice (C57BL/6) [4], the “Cholesterol (% of vehicle)” value is recorded as 80.6* % of vehicle. In addition, the “FGF-21 (% of vehicle)” value with DIO mice (C57BL/6) [4] is 465* % of vehicle. Further, the “PCSK9 (% of vehicle)” value in the data set with DIO mice (C57BL/6) [4] was 12.8* % of vehicle. Moreover, the Emax – broadly, the greatest response seen or fitted, relative to the assay's reference – on hGLP-1-R [5] (HEK293) is 107 ± 7%. Besides, on hGLP-1-R [6], the Ki (in general, a dissociation constant, usually derived from enzyme kinetics or from competition with a known ligand) worked out at 28.6 ± 4.8 nM.
